Measurements reported in the NIST ThermoML archive (doi:10.1021/je800579j).
± gives the expanded uncertainty stated by the source.

Assay: xn = mol fraction of the nth substance listed
Conditions: Liquid, Pycnometric method

C1COCCO1 [1,4-dioxane] + c1ccccc1
mass density (288.15 K, x1 = 0.0713): 895.16 ± 0.81 kg/m3
mass density (288.15 K, x1 = 0.1403): 905.71 ± 0.82 kg/m3
mass density (288.15 K, x1 = 0.2123): 916.74 ± 0.83 kg/m3
mass density (288.15 K, x1 = 0.2809): 927.28 ± 0.83 kg/m3
mass density (288.15 K, x1 = 0.3528): 938.34 ± 0.84 kg/m3
mass density (288.15 K, x1 = 0.4195): 948.63 ± 0.85 kg/m3
mass density (288.15 K, x1 = 0.5037): 961.65 ± 0.85 kg/m3
mass density (288.15 K, x1 = 0.58): 973.48 ± 0.86 kg/m3
mass density (288.15 K, x1 = 0.6504): 984.43 ± 0.86 kg/m3
mass density (288.15 K, x1 = 0.7197): 995.23 ± 0.86 kg/m3
mass density (288.15 K, x1 = 0.7822): 1005 ± 0.87 kg/m3
mass density (288.15 K, x1 = 0.8561): 1016.58 ± 0.87 kg/m3
mass density (288.15 K, x1 = 0.9287): 1027.99 ± 0.87 kg/m3
mass density (288.15 K, x1 = 1): 1039.23 ± 0.87 kg/m3
mass density (293.15 K, x1 = 0.0713): 889.77 ± 0.81 kg/m3
mass density (293.15 K, x1 = 0.1403): 900.28 ± 0.81 kg/m3
mass density (293.15 K, x1 = 0.2123): 911.28 ± 0.82 kg/m3
mass density (293.15 K, x1 = 0.2809): 921.79 ± 0.83 kg/m3
mass density (293.15 K, x1 = 0.3528): 932.82 ± 0.83 kg/m3
mass density (293.15 K, x1 = 0.4195): 943.09 ± 0.84 kg/m3
mass density (293.15 K, x1 = 0.5037): 956.08 ± 0.85 kg/m3
mass density (293.15 K, x1 = 0.58): 967.89 ± 0.85 kg/m3
mass density (293.15 K, x1 = 0.6504): 978.82 ± 0.85 kg/m3
mass density (293.15 K, x1 = 0.7197): 989.61 ± 0.86 kg/m3
mass density (293.15 K, x1 = 0.7822): 999.37 ± 0.86 kg/m3
mass density (293.15 K, x1 = 0.8561): 1010.94 ± 0.86 kg/m3
mass density (293.15 K, x1 = 0.9287): 1022.35 ± 0.86 kg/m3
mass density (293.15 K, x1 = 1): 1033.59 ± 0.87 kg/m3
mass density (298.15 K, x1 = 0.0713): 884.38 ± 0.81 kg/m3
mass density (298.15 K, x1 = 0.1403): 894.85 ± 0.82 kg/m3
mass density (298.15 K, x1 = 0.2123): 905.82 ± 0.82 kg/m3
mass density (298.15 K, x1 = 0.2809): 916.3 ± 0.83 kg/m3
mass density (298.15 K, x1 = 0.3528): 927.31 ± 0.84 kg/m3
mass density (298.15 K, x1 = 0.4195): 937.55 ± 0.84 kg/m3
mass density (298.15 K, x1 = 0.5037): 950.51 ± 0.85 kg/m3
mass density (298.15 K, x1 = 0.58): 962.3 ± 0.85 kg/m3
mass density (298.15 K, x1 = 0.6504): 973.21 ± 0.86 kg/m3
mass density (298.15 K, x1 = 0.7197): 983.99 ± 0.86 kg/m3
mass density (298.15 K, x1 = 0.7822): 993.74 ± 0.86 kg/m3
mass density (298.15 K, x1 = 0.8561): 1005.3 ± 0.87 kg/m3
mass density (298.15 K, x1 = 0.9287): 1016.71 ± 0.87 kg/m3
mass density (298.15 K, x1 = 1): 1027.95 ± 0.87 kg/m3
mass density (303.15 K, x1 = 0.0713): 878.99 ± 0.82 kg/m3
mass density (303.15 K, x1 = 0.1403): 889.42 ± 0.82 kg/m3
mass density (303.15 K, x1 = 0.2123): 900.36 ± 0.83 kg/m3
mass density (303.15 K, x1 = 0.2809): 910.81 ± 0.84 kg/m3
mass density (303.15 K, x1 = 0.3528): 921.8 ± 0.84 kg/m3
mass density (303.15 K, x1 = 0.4195): 932.01 ± 0.85 kg/m3
mass density (303.15 K, x1 = 0.5037): 944.94 ± 0.85 kg/m3
mass density (303.15 K, x1 = 0.58): 956.71 ± 0.86 kg/m3
mass density (303.15 K, x1 = 0.6504): 967.6 ± 0.86 kg/m3
mass density (303.15 K, x1 = 0.7197): 978.37 ± 0.87 kg/m3
mass density (303.15 K, x1 = 0.7822): 988.11 ± 0.87 kg/m3
mass density (303.15 K, x1 = 0.8561): 999.66 ± 0.87 kg/m3
mass density (303.15 K, x1 = 0.9287): 1011.07 ± 0.87 kg/m3
mass density (303.15 K, x1 = 1): 1022.32 ± 0.88 kg/m3
mass density (308.15 K, x1 = 0.0713): 873.6 ± 0.82 kg/m3
mass density (308.15 K, x1 = 0.1403): 883.99 ± 0.83 kg/m3
mass density (308.15 K, x1 = 0.2123): 894.9 ± 0.83 kg/m3
mass density (308.15 K, x1 = 0.2809): 905.32 ± 0.84 kg/m3
mass density (308.15 K, x1 = 0.3528): 916.28 ± 0.85 kg/m3
mass density (308.15 K, x1 = 0.4195): 926.47 ± 0.85 kg/m3
mass density (308.15 K, x1 = 0.5037): 939.38 ± 0.86 kg/m3
mass density (308.15 K, x1 = 0.58): 951.12 ± 0.86 kg/m3
mass density (308.15 K, x1 = 0.6504): 962 ± 0.87 kg/m3
mass density (308.15 K, x1 = 0.7197): 972.75 ± 0.87 kg/m3
mass density (308.15 K, x1 = 0.7822): 982.48 ± 0.87 kg/m3
mass density (308.15 K, x1 = 0.8561): 994.02 ± 0.88 kg/m3
mass density (308.15 K, x1 = 0.9287): 1005.43 ± 0.88 kg/m3
mass density (308.15 K, x1 = 1): 1016.68 ± 0.88 kg/m3
mass density (313.15 K, x1 = 0.0713): 868.22 ± 0.82 kg/m3
mass density (313.15 K, x1 = 0.1403): 878.58 ± 0.83 kg/m3
mass density (313.15 K, x1 = 0.2123): 889.45 ± 0.84 kg/m3
mass density (313.15 K, x1 = 0.2809): 899.84 ± 0.84 kg/m3
mass density (313.15 K, x1 = 0.3528): 910.77 ± 0.85 kg/m3
mass density (313.15 K, x1 = 0.4195): 920.94 ± 0.86 kg/m3
mass density (313.15 K, x1 = 0.5037): 933.82 ± 0.86 kg/m3
mass density (313.15 K, x1 = 0.58): 945.54 ± 0.87 kg/m3
mass density (313.15 K, x1 = 0.6504): 956.4 ± 0.87 kg/m3
mass density (313.15 K, x1 = 0.7197): 967.13 ± 0.87 kg/m3
mass density (313.15 K, x1 = 0.7822): 976.85 ± 0.88 kg/m3
mass density (313.15 K, x1 = 0.8561): 988.39 ± 0.88 kg/m3
mass density (313.15 K, x1 = 0.9287): 999.79 ± 0.88 kg/m3
mass density (313.15 K, x1 = 1): 1011.05 ± 0.89 kg/m3
mass density (318.15 K, x1 = 0.0713): 862.84 ± 0.83 kg/m3
mass density (318.15 K, x1 = 0.1403): 873.17 ± 0.83 kg/m3
mass density (318.15 K, x1 = 0.2123): 884 ± 0.84 kg/m3
mass density (318.15 K, x1 = 0.2809): 894.36 ± 0.85 kg/m3
mass density (318.15 K, x1 = 0.3528): 905.26 ± 0.85 kg/m3
mass density (318.15 K, x1 = 0.4195): 915.41 ± 0.86 kg/m3
mass density (318.15 K, x1 = 0.5037): 928.26 ± 0.87 kg/m3
mass density (318.15 K, x1 = 0.58): 939.96 ± 0.87 kg/m3
mass density (318.15 K, x1 = 0.6504): 950.8 ± 0.87 kg/m3
mass density (318.15 K, x1 = 0.7197): 961.52 ± 0.88 kg/m3
mass density (318.15 K, x1 = 0.7822): 971.23 ± 0.88 kg/m3
mass density (318.15 K, x1 = 0.8561): 982.76 ± 0.88 kg/m3
mass density (318.15 K, x1 = 0.9287): 994.15 ± 0.89 kg/m3
mass density (318.15 K, x1 = 1): 1005.42 ± 0.89 kg/m3
